How the values were obtained:
[1] = test system: collagen-induced arthritis (CIA) and experimental auto-immune encephalomyelitis (EAE); conditions: CIA and EAE in mice; cited from earlier work
B16 melanoma cells = experiment: B16 melanoma lung metastasis model with glycolipid-loaded BMDC; assay type: in vivo, mice; conditions: 10,000 glycolipid pulsed BMDC
Protocol: (§1) The murine iNKT hybridoma N38-2C12 (Vα14Vβ8.1/8.2b) was provided by Brown University, Providence, Rhode Island, USA). Cells were cultured in DMEM Sigma) supplemented with 10% fetal calf serum (Invitrogen), 1% glutamine (Sigma), 1% penicillin streptomycin (Sigma), and 2-mercapto-ethanol (Sigma) (hereinafter called cDMEM). B16 melanoma cells were cultured in advanced RPMI (Sigma) supplemented with 10% fetal calf serum (Invitrogen), 1% glutamine (Sigma) and 1% penicillin streptomycin (Sigma). They were harvested using cell dissociation buffer, which was washed away twice first using the medium and second with PBS. 400,000 cells were intravenously (IV) injected within 30 minutes after harvest into the tail vein.
In order to determine if the new glycolipids can also mimic the anti-metastatic activity of NU-α-GalCer, we examined them in the B16 lung melanoma model. […] As little as 10,000 pulsed BMDC were enough to exert this marked tumor response. To analyze if these anti-tumor results still correspond to strong cytokine responses mice were bled 16 hours after injection of 10,000 pulsed bone marrow dendritic cells. […] Strikingly, the IL-12 results were not different between the 2 doses in contrast to the IFN-γ production, which was more dose-dependent (FIG. 9). […]

[2] = target: T1, TCR / mCD1d-glycolipid complex (Mus musculus, UniProt P11609); experiment: Surface plasmon resonance: TCR binding to mCD1d-glycolipid complexes; conditions: SPR, 25° C., Langmuir 1:1 model; read-out: KD
T1 sequence (P11609 19-297): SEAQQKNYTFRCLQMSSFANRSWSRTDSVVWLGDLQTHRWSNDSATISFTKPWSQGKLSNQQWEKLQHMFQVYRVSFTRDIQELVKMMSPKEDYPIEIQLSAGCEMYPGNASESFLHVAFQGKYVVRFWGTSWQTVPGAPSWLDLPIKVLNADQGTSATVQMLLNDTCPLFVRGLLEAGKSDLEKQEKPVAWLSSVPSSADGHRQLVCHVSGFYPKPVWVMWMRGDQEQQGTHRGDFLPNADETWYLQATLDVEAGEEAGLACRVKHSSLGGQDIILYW
T1 sequence (P01887 21-119 partner): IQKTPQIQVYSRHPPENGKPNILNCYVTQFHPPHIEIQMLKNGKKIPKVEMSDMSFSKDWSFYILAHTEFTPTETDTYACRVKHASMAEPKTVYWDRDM
Protocol: SPR studies were conducted using a Biacore 3000 (Biacore). Glycolipids were dissolved at 1 mg/ml in DMSO and before loading were diluted to 0.25 mg/ml with vehicle solution (50 mM Tris-HCl pH 7.0, 4.8 mg/ml sucrose, 0.5 mg/ml deoxycholate and 0.022% Tween-20), heated for 20 minutes at 80° C. After cooling 1 μg of each lipid was incubated with 10 μg enzymatically biotinylated mCD1d overnight at room temperature. In one embodiment, 400-600 response units (RU) of mCD1d-glycolipid complexes were immobilized onto a CA capture chip (Biacore). A reference surface was generated in another flow channel with unloaded mCD1d immobilized at RU of 500. During the association phase, a series of increasing concentrations of TCR (in 10 mM HEPES, 150 mM NaCl, 3.0 mM EDTA, pH 7.4) in duplicate were injected for 80 seconds and the dissociation phase (running buffer only) was monitored over 45 minutes. Experiments were carried out at 25° C. with a flow rate of 30 μl/min and performed at least two to three times, each time with a different batch of TCR preparation. Kinetic parameters were calculated after subtracting the response to mCD1d molecules in the reference channel, using a simple Langmuir 1:1 model in the BIA evaluation software version 4.1. One representative sensorgram for each lipid is shown. […]

iNKT cells [3] = experiment: In vivo activation of iNKT cells: serum cytokines after intraperitoneal glycolipid injection; parameters: species or system C57BL/6 mice; conditions: 16 hours after intraperitoneal injection of 5 μg glycolipid
Protocol: Glycolipids from this invention were synthesized according to the procedure of example 1. α-C-GalCer was kindly provided by Aaron Diamond AIDS Research Center (New York, USA) and the NIH Tetramer Core Facility. Lyophilized glycolipids were dissolved in pure dimethylsulfoxide (DMSO) (Sigma) at a 10 mg/mL concentration and stored at −20° C. Glycolipids were solubilized by adding phosphate buffer saline (PBS) (Invitrogen) or a standard vehicle (96 mg/mL sucrose, 10 mg/mL sodium deoxycholate, 0,05% Tween 20), warming to 80° C. for 20 minutes, and then sonication for 10 minutes.
(§2) For in vivo activation of iNKT cells C57BL/6 mice were either intraperitoneally injected with 5 μg glycolipid (dissolved in PBS) or intravenously with 6·10^5 or 1·10^4 glycolipid pulsed BMDCs.
In order to assess the antigenicity of the carbamate-containing galactopyranosyl compounds of example 1 and their ability to induce Th1-skewing, mice were bled at 16 hours after intraperitoneal glycolipid exposure because this is known to afford peak levels of IFN-y, the hallmark Th1 cytokine. […] IFN-y production in response to glycolipid dependent iNKT cell activation is known to be dependent on IL-12^10-12, which was therefore analyzed.

human iNKT cells = experiment: Cytokine secretion in cultures of purified human iNKT cells; assay type: cell-based; conditions: glycolipid 100 ng/ml pulsed PBMCs, 24 hours
Protocol: Human iNKT cells from healthy adult individuals were sorted and expanded. PBMCs were isolated by means of density centrifugation, incubated overnight in the presence of indicated glycolipids (100 ng/ml), washed and irradiated (40 Gy). Subsequently, 5×10^4 iNKT cells were stimulated with 10^5 glycolipid pulsed autologous PBMCs in RPMI 1640 media supplemented with 10% human AB serum (Lonza), 1% sodium pyruvate, 1% nonessential amino acids and 1% penicillin/streptomycin (all from Invitrogen). Supernatants were collected after 24 hours of culture and cytokine levels were determined by means of cytometric Bead Arrays (CBA) following the manufacturer's instructions (BD).
(§3) Next we examined if the glycolipid pulsed BMDC behave similarly in vivo. For cytokine analysis we bled the mice at several time points after injection. We focused on IFN-γ and IL-12 secretion.

[4] = test system: spleen DCs (CD11c CD11b double positive); experiment: Co-stimulatory molecule expression on spleen dendritic cells after glycolipid-pulsed BMDC; assay type: in vivo, C57/BL6 mice; conditions: 600000 glycolipid-pulsed BMDC
From the text: Spleen cells were isolated. Lymphocytes were isolated at the interface and washed, depleted with an anti-CD3 kit (Miltenyi Biotec, Sunnyvale, […]) and re-suspended in a staining buffer containing saturating amount of anti-Fcy Receptor type II/type III monoclonal antibodies (Miltenyi). Hereafter cells were stained with fluorochrome-conjugated mAbs (all from Bioscience) directed against the described antigens. Live cells (exclusion with DAPI) were acquired on a FACSCanto (BD) flow cytometer and analyzed using FlowJo (Tree Star) software.
Expression of co-stimulatory markers at the cell surface is linked to cytokine polarization because this determines the degree of activation of by-stander cells such as NK cells, whose IFN-y production is responsible for Th1 polarized cytokine profile. For α-C-GalCer, it has been shown that expression of CD40 is essential for IL-12 and subsequent NK cell dependent IFN-γ production. In contrast, OCH, a Th2 polarizing antigen, is not able to induce CD40 expression at the surface of DCs. Additionally OX40L up-regulation by dendritic cells (DC) has been found important for α-GalCer dependent tumour killing.
Glycolipid stimulation of iNKT cells leads to CD28 expression, and induces CD80 and CD86 expression at the dendritic cell surface, which is required for induction of IL-12 by dendritic cells. […]

iNKT cells [5] = experiment: In vivo cytokine secretion after intravenous injection of glycolipid-pulsed BMDC; parameters: species or system C57BL/6 mice
Protocol: as §2, §3
In order to determine if the new glycolipids can also mimic the anti-metastatic activity of NU-α-GalCer, we examined them in the B16 lung melanoma model. […] As little as 10,000 pulsed BMDC were enough to exert this marked tumor response. To analyze if these anti-tumor results still correspond to strong cytokine responses mice were bled 16 hours after injection of 10,000 pulsed bone marrow dendritic cells. […] Strikingly, the IL-12 results were not different between the 2 doses in contrast to the IFN-γ production, which was more dose-dependent (FIG. 9). This might indicate that other cytokines such as IL-18, which is also necessary for the induction of IFN-γ by NK cells might play an additional role in iNKT cell dependent Th1 polarization.

[6] = test system: murine iNKT hybridoma N38-2C12; experiment: Co-culture of glycolipid-pulsed BMDC with iNKT cell hybridoma 2C12, IL-2 by ELISA; assay type: cell-based; conditions: BMDC loaded 20 hours with 100 ng/mL glycolipid, 16 hours co-culture with 2C12 cells
Protocol: as §1
For in vitro stimulation, murine iNKT hybridoma cells at 5·10^4 cells/well in 96-well plates were stimulated with the 10^5 cells/well glycolipid pulsed BMDCs in cDMEM for 4, 16 or 24 hours at […], and levels of murine IL-2 secretion were determined by ELISA.
iNKT cell polarization is a matter of debate and it has been shown uptake by different cells can also affect the outcome. To avoid these host dependent parameters we set up a simple in vitro model, which consists of co-cultures of glycolipid-pulsed bone marrow dendritic cells and an iNKT cell hybridoma (i.c. 2C12 containing a Vβ8.2 TCR). IL-2 production is used as a read-out for TCR affinity for the whole CD1d-glycolipid complex. […] To confirm this we also measured intracellular IL-2 production in 2C12 cells already 4 hours after coculture, where a similar result was obtained (FIG. 2). Because IL-2 production is a downstream event of TCR signaling we analyzed TCRβ expression.
In order to assess the antigenic activity of the triazolyl-containing galactopyranosyl compounds of example 10, bone marrow dendritic cells (BMDC) were loaded during 20 hours with 100 ng/mL glycolipid. After 16 hours of co-culture with 2C12 cells (iNKT cell hybridoma), IL-2 secretion was determined by ELISA.

[7] = 16 hours after injection of 10,000 pulsed BMDC

Molecule: CCCCCCCCCCCCCCCCCCCCCCCC(=O)N[C@@H](COC1OC(CO)C(O)C(O)C1O)[C@H](O)[C@H](O)CCCCC (some centres unmarked) [OCH]
- effect on Th1-mediated auto-immune diseases [1]: protective effect

Molecule: CCCCCCCCCCCCCCCCCCCCCCCCCC(=O)NC(COC1OC(COC(=O)Nc2ccncc2)C(O)C(O)C1O)C(O)C(O)CCCCCCCCCCCCCC [PyrC-α-GalCer, (2S,3S,4R)-1-O-(6-O-(4pyridinylcarbamoyl)-α-D-galactopyranosyl)-2-hexa-cosylamino-octadecane-1,3,4-triol]
- prevention of tumor metastasis (lung nodules) (B16 melanoma cells): still better in preventing tumor metastasis
- Kd [2]: 0.033 µM
- IL-12 production (iNKT cells [3]): significantly higher IL-12 levels than NU-α-GalCer
- Th1-biased cytokine secretion (more IFN-γ and IL-12 and less IL-4 and IL-13 compared to α-GalCer) (human iNKT cells): able to induce Th1-biased cytokine secretion
- CD40 up-regulation on spleen DCs [4]: induces early CD40 up-regulation
- IFN-γ production (iNKT cells [5]; [7]): significantly higher
- IL-12 production (iNKT cells [5]; [7]): significantly higher
- IL-12 secretion after 24 hours (iNKT cells [5]; 24 hours after injection of glycolipid pulsed BMDC): markedly higher than for NU-α-GalCer
- IL-12 secretion (iNKT cells [5]; after injection of glycolipid pulsed BMDC): very high
- IFN-γ level time course (iNKT cells [5]; several time points after injection of glycolipid pulsed BMDC): increased up to 24 hours after injection

Molecule: (2S,3S,4R)-1-O-(6-deoxy-6-(4-butyltriazol-1-yl)-α-D-galactopyranosyl)-2-hexacosylamino-octadecane-1,3,4-triol [Compound 44]
- IL-2 secretion [6]: tend to induce the highest IL-2 secretion

Molecule: (2S,3S,4R)-1-O-(6-deoxy-6-(4-phenyltriazol-1-yl)-α-D-galactopyranosyl)-2-hexacosylamino-octadecane-1,3,4-triol [Compound 45]
- IL-2 secretion [6]: tend to induce the highest IL-2 secretion

Molecule: (2S,3S,4R)-1-O-(6-deoxy-6-(triazol-1-yl)-α-D-galactopyranosyl)-2-hexacosylamino-octadecane-1,3,4-triol [non-substituted triazolyl compound]
- IL-2 secretion [6]: even better in stimulating iNKT cells to release IL-2

From US9321796B2, “Galactopyranosyl derivatives useful as medicaments” (Universiteit Gent, priority 2012, dated 2016)
